# Measured values from patent publication US12642270B2, “Substituted thiophene carboxamides, thiophene carboxylic acids and derivatives thereof” (Bayer Aktiengesellschaft, priority 2019, dated 2026).
# Assay: Log P by HPLC on reversed phase columns (EEC directive 79/831 Annex V.A8)
# Format: physicochemical
# How it was run: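 Values come from retention times calibrated against alkan-2-ones (3–16 carbons) by linear interpolation, using reversed-phase LC-UV per EEC directive 79/831 Annex V.A8. Acetonitrile gradient 10–95% with 0.1% formic acid [a], 0.001 M ammonium acetate [b] or 0.1% phosphoric acid [c]; several values within one method separated by "+".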
# [1] = method marker [a] given with each value, Table 1.1, compounds of formula (I)
Compound,LogP (method [a]),LogP [1]
N#CC1(NC(=O)c2sc(Br)c(Br)c2Cl)CCC1 [1.0873],3.35^[a],
CC(C)C(C#N)NC(=O)c1sc(Br)c(Br)c1Cl (stereo not drawn) [1.0874],3.88^[a],
O=C(O)CNC(=O)c1sc(Cl)c(Br)c1Cl [1.0875],2.18^[a],
O=C(O)C(Cc1ccccc1)NC(=S)c1sc(Br)c(Br)c1F (stereo not drawn) [1.0876],4.17^[a],
CCOC(=O)CNC(=S)c1sc(C#N)c(Br)c1C [1.0877],3.30^[a],
COC(=O)CNC(=S)c1cc(Br)c(Cl)s1 [1.0878],3.35^[a],
CCCOC(=O)C1(NC(=O)c2sc(Cl)c(Cl)c2Br)CCC1 [1.0879],4.74^[a],
O=C(NC1(C(=O)OC2CCCCC2)CCC1)c1sc(Cl)c(Cl)c1Br [1.0880],5.89^[a],
NC(=S)C1(NC(=O)c2sc(Cl)c(Cl)c2Br)CC1 [1.0881],2.77^[a],
CNC(=O)C1(NC(=O)c2sc(Cl)c(Cl)c2Br)CC1 [1.0882],2.28^[a],
O=C(CNC(=O)c1sc(Br)c(Br)c1Cl)OC1CCOCC1 [1.0883],3.14^[a],
CC(C)(C)OC(=O)C(NC(=O)c1sc(Br)c(Br)c1Cl)C1CC1 (stereo not drawn) [1.0884],5.36^[a],
O=C(NC(C(=O)OC1CCC1)C1CC1)c1sc(Br)c(Br)c1Cl (stereo not drawn) [1.0885],5.08^[a],
CC(C)OC(=O)C(NC(=O)c1sc(Br)c(Br)c1Cl)C1CC1 (stereo not drawn) [1.0886],4.89^[a],
O=C(NC1(C(=O)OCC2CC2)CCC1)c1sc(Br)c(Br)c1Cl [1.0887],4.81^[a],
O=C(NC1(C(=O)OCc2ccccc2)CCC1)c1sc(Cl)c(Cl)c1Br [1.0888],5.00^[a],
O=C(NC1(C(=O)OC2CCC2)CCC1)c1sc(Cl)c(Cl)c1Br [1.0889],4.93^[a],
CCCCOC(=O)C1(NC(=O)c2sc(Cl)c(Cl)c2Br)CCC1 [1.0890],5.20^[a],
CC(C)(C)OC(=O)C1(NC(=O)c2sc(Cl)c(Cl)c2Br)CCC1 [1.0891],5.28^[a],
COC(=O)CNC(=O)c1sc(Cl)c(C)c1Cl [1.0892],2.64^[a],
CCOC(=O)CNC(=O)c1sc(Cl)c(C)c1Cl [1.0893],3.07^[a],
NC(=O)CNC(=O)c1sc(Br)c(Br)c1F [1.0894],1.69^[a],
N#CNC(=O)C1(NC(=O)c2sc(Br)c(Br)c2F)CC1 [1.0895],2.38^[a],
NC(=S)CNC(=O)c1sc(Br)c(Br)c1F [1.0896],2.25^[a],

Compound,LogP (method [a]),LogP [1]
COC(=O)C1(NC(=O)c2sc(C)c(Cl)c2Cl)CC1 [1.0897],2.67^[a],
CC(C)(C)OC(=O)C1(NC(=O)c2sc(Br)c(Br)c2Cl)CC1 [1.0898],5.28^[a],
CCOC(=O)CNC(=O)c1cc(Cl)c(F)s1 [1.0899],2.23^[a],
NC(=S)C1(NC(=O)c2sc(Br)c(Br)c2F)CC1 [1.0900],2.42^[a],
COC(=O)C1(NC(=O)c2cc(Cl)c(F)s2)CC1 [1.0901],2.13^[a],
CC(C)(C)OC(=O)C(NC(=O)c1sc(Cl)c(Cl)c1Br)C1CC1 (stereo not drawn) [1.0902],5.41^[a],
O=C(NC(C(=O)OC1CCC1)C1CC1)c1sc(Cl)c(Cl)c1Br (stereo not drawn) [1.0903],5.08^[a],
CC(C)OC(=O)C(NC(=O)c1sc(Cl)c(Cl)c1Br)C1CC1 (stereo not drawn) [1.0904],4.89^[a],
O=C(NC1(C(=O)OCC2CC2)CCC1)c1sc(Cl)c(Cl)c1Br [1.0905],4.78^[a],
COC(=O)CNC(=O)c1cc(Cl)c(F)s1 [1.0906],1.90^[a],
CCCCOC(=O)C1(NC(=O)c2sc(Br)c(Br)c2Cl)CCC1 [1.0907],5.20^[a],
O=C(NC1(C(=O)OC2CCC2)CCC1)c1sc(Br)c(Br)c1Cl [1.0908],4.97^[a],
O=C(NC1(C(=O)OCc2ccccc2)CCC1)c1sc(Br)c(Br)c1Cl [1.0909],5.00^[a],
C#CCOC(=O)CNC(=O)c1sc(Cl)c(Cl)c1C#N [1.0910],2.58^[a],
C#CCOC(=O)CNC(=O)c1sc(C#N)c(Cl)c1Cl [1.0911],2.63^[a],
C=CCOC(=O)C1(NC(=O)c2sc(C#N)c(Cl)c2Cl)CC1 [1.0912],3.00^[a],
C=CCOC(=O)C1(NC(=O)c2sc(Cl)c(Cl)c2C#N)CC1 [1.0913],2.91^[a],
Cc1c(C(=O)NCC(N)=O)sc(C#N)c1Cl [1.0914],1.34^[a],
Cc1c(C(=O)NCC(N)=O)sc(C#N)c1Br [1.0915],1.38^[a],
N#Cc1c(C(=O)NCC(N)=O)sc(Cl)c1Cl [1.0916],1.47^[a],
CCCOC(=O)C1(NC(=O)c2sc(Br)c(Br)c2Cl)CCC1 [1.0917],4.78^[a],
O=C(NC1(C(=O)OC2CCCCC2)CCC1)c1sc(Br)c(Br)c1Cl [1.0918],5.89^[a],
NC(=S)C1(NC(=O)c2sc(Br)c(Br)c2Cl)CC1 [1.0919],2.80^[a],
CNC(=O)C1(NC(=O)c2sc(Br)c(Br)c2Cl)CC1 [1.0920],2.31^[a],

Compound,LogP (method [a]),LogP [1]
O=C(NC1(C(=O)OCC2CC2)CCC1)c1sc(Br)c(Br)c1F [1.0924],4.33^[a],
CC(C)(C)OC(=O)C1(NC(=O)c2sc(Br)c(Br)c2F)CCC1 [1.0925],4.78^[a],
CCCCOC(=O)C1(NC(=O)c2sc(Br)c(Br)c2F)CCC1 [1.0926],4.74^[a],
O=C(NC1(C(=O)OCc2ccccc2)CCC1)c1sc(Br)c(Br)c1F [1.0927],4.59^[a],
CCCOC(=O)C1(NC(=O)c2sc(Br)c(Br)c2F)CCC1 [1.0928],4.30^[a],
O=C(NC1(C(=O)OC2CCCCC2)CCC1)c1sc(Br)c(Br)c1F [1.0929],5.28^[a],
O=C(NC1(C(=O)OC2CCC2)CCC1)c1sc(Br)c(Br)c1F [1.0930],4.47^[a],
CCOC(=O)CN(C(=O)c1sc(Br)c(Br)c1Cl)C1CC1 [1.0935],,3.81^[a]
CCOC(=O)CN(C(=O)c1sc(Cl)c(Br)c1Cl)C1CC1 [1.0936],,3.80^[a]
CCOC(=O)CN(C(=O)c1sc(Cl)c(Cl)c1Br)C1CC1 [1.0937],,3.81^[a]
CCOC(=O)CN(C(=O)c1sc(Br)c(Br)c1F)C1CC1 [1.0938],,3.64^[a]
COC(=O)C(C)(Cc1ccccc1)NC(=O)c1sc(Br)c(Br)c1F (stereo not drawn) [1.0954],,4.64^[a]
COC(=O)C(Cc1ccc(Cl)cc1)NC(=O)c1sc(Br)c(Br)c1F (stereo not drawn) [1.0955],,4.52^[a]
C#CCOC(=O)CNC(=O)c1sc(Br)c(Br)c1Cl [1.0959],,3.20^[a]
O=C(CNC(=O)c1sc(Br)c(Br)c1Cl)OC1CC1 [1.0960],,3.39^[a]
C=CCOC(=O)CNC(=O)c1sc(Br)c(Br)c1Cl [1.0961],,3.50^[a]
C=CCOC(=O)C1(NC(=O)c2sc(C#N)c(Br)c2C)CC1 [1.0962],,2.81^[a]
C#CCOC(=O)C1(NC(=O)c2sc(C#N)c(Br)c2C)CC1 [1.0963],,2.61^[a]
Cc1c(C(=O)NC2(C(=O)OC(C)C)CC2)sc(C#N)c1Br [1.0964],,2.93^[a]
Cc1c(C(=O)NCC(=O)OC2CCCC2)sc(C#N)c1Br [1.0965],,3.24^[a]
CCCOC(=O)C1(NC(=O)c2sc(C#N)c(Br)c2C)CC1 [1.0966],,2.98^[a]
Cc1c(C(=O)NCC(=O)Oc2ccccc2)sc(C#N)c1Br [1.0967],,3.10^[a]
Cc1c(C(=O)NC2(C(=O)OC3CCC3)CC2)sc(C#N)c1Br [1.0968],,3.13^[a]
CCCCOC(=O)C1(NC(=O)c2sc(C#N)c(Br)c2C)CC1 [1.0969],,3.36^[a]
